Results: article PMC7365253 (Journal of the American Chemical Society, 2020)

Molecular target: Kelch-like ECH-associated protein 1 (KEAP1) (Homo sapiens, UniProt Q14145)
Type: cell-based

Sequence of Kelch-like ECH-associated protein 1 (KEAP1) (Q14145 whole entry): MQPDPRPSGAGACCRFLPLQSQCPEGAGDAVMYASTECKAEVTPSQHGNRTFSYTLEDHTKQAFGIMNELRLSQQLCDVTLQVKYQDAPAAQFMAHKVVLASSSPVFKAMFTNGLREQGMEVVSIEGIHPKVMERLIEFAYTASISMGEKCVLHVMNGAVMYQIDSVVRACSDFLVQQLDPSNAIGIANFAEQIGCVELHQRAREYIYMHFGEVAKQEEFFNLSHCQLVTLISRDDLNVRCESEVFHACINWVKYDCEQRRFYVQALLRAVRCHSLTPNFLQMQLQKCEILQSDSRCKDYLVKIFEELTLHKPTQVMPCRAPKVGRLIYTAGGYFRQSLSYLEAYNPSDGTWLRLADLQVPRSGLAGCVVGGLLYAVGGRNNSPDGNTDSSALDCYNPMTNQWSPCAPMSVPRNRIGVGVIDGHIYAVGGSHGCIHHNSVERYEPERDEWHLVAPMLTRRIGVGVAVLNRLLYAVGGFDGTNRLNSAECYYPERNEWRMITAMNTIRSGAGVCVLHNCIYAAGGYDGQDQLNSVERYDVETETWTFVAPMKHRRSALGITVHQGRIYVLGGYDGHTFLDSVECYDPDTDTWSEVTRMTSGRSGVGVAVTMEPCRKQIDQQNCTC

EC50: 1100 nM
SMILES: Cc1cc(C)c(C#N)c(S(C)(=O)=O)n1 [compound 1, 2-methylsulfony-4,6-diemthyl-nicotinonitrile]
